Here are results for three compounds from patent publication US12383753B2, “Method and system of sensitizing cancer cells to chemical treatment by plasma based activation” (The George Washington University, priority 2018, dated 2025).

The structures appear in SMILES notation. Entries after “also recorded” stand apart in the source; their conditions may differ.

The subject of data set [1] is human pancreas adenocarcinoma (PA-TU-8988T) cells. The experiment in a line: MTT cell viability assay of cancer cells with or without CAP activation, followed by reactive species treatment. In kind it is cell-based. The note with it: for cell viability: 10 μM H2O2 on CAP-activated cells, 12.5 kHz, 1.53 lpm. How it is done:
In this example, human pancreas adenocarcinoma (PA-TU-8988T) cells were used in conjunction with a Dulbecco's modified Eagle's medium (DMEM, 11965-118) from Life Technologies. The DMEM was mixed with 1% (v/v) antibiotic (penicillin and streptomycin) solution (Life Technologies). The media used in the cell culture were composed of DMEM supplemented with 10% (v/v) fetal bovine serum (ThermoFisher Scientific). The cells were cultured in a 96-well plate (61406-081, Corning). 100 μL of the cells-harvesting solution (3×10^4 cells/mL) were seeded in each well. Cancer cells were grown for 1 day under the standard culture condition (a humidified, 37 C, 5% CO2 environment). The media used to culture cells overnight were removed before any experiments were performed.
In the example system 200 in FIG. 2A, basic protocols were provided to determine the activation state of cancer cells. To perform the CAP sensitivity treatment, each well of the well plate 230 was filled with a 50 μL DMEM solution with the growing cells. Each of the cells in the 96-well plate 230 was treated by the CAP jet from the CAP jet device 202 vertically. The gap between the bottom of the 96-well plate 230 and the CAP source is 3 cm in this example. After the CAP treatment, 50 μL of new DMEM was transferred to replace the medium in the wells of the 96-well plate 230 treated by the CAP jet device 202.
As a result, cancer cells in the activation state were obtained when the CAP sensitivity treatment time was longer than 20 seconds. Reactive treatment was applied in the form of new H2O2 − DMEM added to the cells in the well plate 230. To make the new H2O2 − DMEM, 9.8 M H2O2 standard solution (Sigma-Aldrich, 216763) was added to DMEM with a designed concentration. Then, H2O2 − DMEM or NO2 − DMEM was transferred to affect the activated cancer cells in the designed experiments. The cell viability was measured by using MTT assay according to the standard protocols provided by the manufacturer (Sigma-Aldrich, M2128). The 96-well plate 230 was read by an H1 microplate reader manufactured by […] at an absorbance of 570 nm after shaking in the reader for 30 seconds. To perform the data analysis, the measured absorbance at 570 nm was processed to be a relative cell viability by the division of absorbance between the experimental group and the control group.
The CAP treatment and removal of the medium containing reactive species is the basic strategy to obtain the cancer cells in the activated state. Thus, the process for increasing the effectiveness of treating cancer cells with a follow up reactive treatment is as follows. The direct CAP sensitivity treatment (1 min) was first performed on each well of the 96-well plate 230. The cancer cells in the wells were immersed in 50 μL of DMEM. The DMEM was quickly removed (less than a minute) after the CAP sensitivity treatment. Then, the CAP-activated (treated) cancer cells were obtained. The cytotoxicity of H2O2 (10 μM) treatment on the CAP-treated (activated) cancer cells were compared with that on cancer cells without the CAP sensitivity treatment. The H2O2-containing DMEM was made by adding H2O2 standard solution (Sigma-Aldrich, 216763) in DMEM with a designed concentration (10 μM). All cells were cultured for 3 days before the final cell viability assay using a MTT assay (Sigma-Aldrich, M2128). The cell viability assay was performed following the standard protocols provided by the manufacturer. Finally, the absorbance at 570 nm was processed to be a relative cell viability (fold) by the division of absorbance between the experimental group and the control group. In the control group, cancer cells were just cultured in the untreated DMEM.
(In general: Formazan colour is commonly taken as a measure of viable cells.)

For data set [2] the following is noted: cited from earlier work.
The test system of data set [3] is human pancreas adenocarcinoma (PA-TU-8988T) cells. The experiment in a line: MTT cell viability assay of cancer cells with or without CAP activation, followed by reactive species treatment. In kind it is cell-based.
[4] abbreviates: low concentration, CAP-activated cancer cells.
Setting [5] is: low concentration, same cancer cells without activation.

`O=NO` [NO2 −]: the “killing effect (in words)” value is reported as “noticeable killing effect” in data set [1] (setting [4]) and “will not cause significant killing effect” in data set [1] (setting [5]).

Consider `Cn1nnc2c(C(N)=O)ncn2c1=O` [TMZ, Temozolomide], for which the “concentration range found in CSF” value in data set [2] is 10 to 25 µM.

As for `OO` [H2O2], the “killing effect (in words)” value in data set [1] (10 μM H2O2, CAP-activated cells) is given as “significant killing effect”; in data set [1] (10 μM H2O2, cells without CAP treatment (activation)), “will not cause a killing effect; also recorded: does not cause a killing effect”; in data set [1] (setting [4]) it was “noticeable killing effect”; in data set [1] (setting [5]), “will not cause significant killing effect”; in data set [3] (H2O2 15 μM and 22 μM, CAP-activated cells) it was “strong killing effect”; in data set [3] (H2O2-DMEM 15 μM and 22 μM, cells without activation), “did not cause strong killing effect”. For the same compound, the cell viability came out at 0.73 fold in data set [1] (discharge voltage 3.15 kV), 0.38 fold in data set [1] (discharge voltage 3.78 kV) and 0.71 fold in data set [1] (discharge voltage 4.67 kV). For the same compound, the “effect on cell viability (in words)” value in data set [1] (H2O2 DMEM applied two hours after CAP treatment) is “does not have any effect on cell viability”. Moreover, the killing effect was ~50% in data set [3] (22 μM H2O2, cells activated by CAP (bars 414 and 444)); “about 10%” in data set [3] (22 μM H2O2, cells without activation (bars 416 and 446)). Also, the “killing of cancer cells (in words)” value in data set [3] (22 μM H2O2-DMEM, cells activated by CAP treatment) is “strongly kill”. Further, the “inhibition on the cell viability (in words)” value in data set [3] (22 μM H2O2-DMEM, cells without CAP treatment) is “very small inhibition”.
